The results in this text go back to paper doi:10.64898/2025.12.11.693838v1 (biorxiv, 2025).

This experiment deals with T1, SaTpx (WT-SaTpx) (Staphylococcus aureus, UniProt Q2FXL3).
T1 sequence (Q2FXL3 1-164): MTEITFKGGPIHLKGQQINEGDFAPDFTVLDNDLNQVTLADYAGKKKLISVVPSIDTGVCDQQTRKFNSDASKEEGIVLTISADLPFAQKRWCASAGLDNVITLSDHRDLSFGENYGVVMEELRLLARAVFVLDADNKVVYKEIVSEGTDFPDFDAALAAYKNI
Briefly: coupled SaTrx1/SaTR NADPH oxidation assay at […] nm, Michaelis-Menten fit. It counts as biochemical. The note with it: apparent; NADPH 0.2 mM; 20 mM Tris, 50 mM NaCl, pH 8.0.

The Km is the concentration of substrate that gives half-maximal velocity. For `CC(C)(OO)c1ccccc1` [cumene hydroperoxide], the Km was 8.5 µM.
